# Reference: US20260191838A1, “COMBINATIONS COMPRISING A MENIN-MLL INHIBITOR AND A BCL-2 INHIBITOR” (JANSSEN PHARMACEUTICA NV, priority 2022, published 2026)
# Tested on: MOLM-13 tumors in NSG mice
# Experiment: Efficacy (survival) in disseminated MOLM-13 (KMT2A-rearranged) IV model in NSG mice
# Type: in vivo
# Method: 4) Efficacy of Menin-KMT2A Inhibitor in Combination with Venetoclax, and Optionally, Azacitidine, in MOLM-13 (KMT2A-Rearranged) IV Model in NSG Mice
# Compound 51 was formulated in purified pyrogen-free deionized water, pH 4.0 and prepared to reach a total volume of 8 mL/kg. Doses were adjusted by individual body weight each day. Working stocks of Compound 51 were prepared once per week for each study and stored at 25° C.
# Female NSG (NOD.Cg-Prkdc^scid Il2rg^tm1Wj1/SzJ) mice were used when they were approximately 6 to 8 weeks of age and weighed approximately 25 g. All animals could acclimate and recover from any shipping-related stress for a minimum of 7 days prior to experimental use. Autoclaved water and irradiated food were provided ad libitum, and the animals were maintained on a 12 hour light and dark cycle. Cages, bedding, and water bottles were autoclaved before use and changed weekly. The tissue culture and cell injection reagents are summarized below in Table 5.
# Tumor Model and Cell Culture Method
# Human AML MOLM-13 cells were cultured at 37° C., 5% CO2 in the indicated complete culture media (RPMI 1640+10% HI-FBS+2 mM L-glutamine+50 μg/ml Gentamycin). Cells were harvested while in logarithmic growth and resuspended in cold (4° C.) Roswell Park Memorial Institute (RPMI) 1640 in serum-free medium.
# For the disseminated MOLM-13 model, each mouse received 1×10^5 cells via IV injection in a total volume of 0.2 mL using a 26-gauge needle.
# Day 0 is the day of tumor cell implantation and study initiation.
# Mice bearing IV MOLM-13 xenograft tumors were randomly assigned to treatment groups 5 days post-tumor cell engraftment.
# Animals were monitored daily for clinical signs related to either compound toxicity or tumor burden (i.e., hind limb paralysis, lethargy, etc.).
# For survival assessment, results were plotted as the percentage survival against days post tumor implant. Negative clinical signs and/or ≥20% body weight loss was used as a surrogate endpoint for death. Median survival was determined utilizing Kaplan-Meier survival analysis. The percent increased life span (ILS) was calculated as: ((median survival day of treated group−median survival day of control group)/median survival day of control group)×100. Animals failing to reach the surrogate endpoint due to adverse clinical signs or death unrelated to treatment were censored for the survival assessment. As defined by NCI criteria, ≅25% ILS is considered biologically significant. (Johnson J I et al. Br J Cancer. 2001. 84(10), 1424-1431).
# Survival and body weight data were graphically represented utilizing Prism (Version 9). Statistical significance for body weights was evaluated as described above. Statistical significance was evaluated for Kaplan-Meier survival plots comparing therapeutic treatment group vs. appropriate vehicle-treated control using log-rank (Mantel-Cox) test in R software version 3.4.2. Differences between groups were considered significant when the p value was ≤0.05.
# The disseminated MOLM-13 model described above was used to examine the efficacy of menin-KMT2A-inhibitor (formulated as described above) in combination with venetoclax (formulated in polyethylene glycol [PEG]-400/Phosal50/dimethyl sulfoxide [DMSO]), and optionally azacitidine (formulated in 0.9% saline). Treatment with compound(s) was initiated 5 days after cell injection. Compound 51 was given in the morning, and venetoclax or azacitidine was given in the afternoon, approximately 6-8 hr apart.
smiles,measurement,setting,value
CC(=O)N1CCC(CN2CC[C@@H](Cc3cn(-c4ccc(F)cc4C(=O)N(C)C(C)C)c4cncc(C)c34)C2)CC1 [Compound 51],"lifespan, Compound 51 in combination with venetoclax compared to venetoclax alone",MOLM-13 tumor-bearing mice,statistically significant increased lifespan
same,"lifespan, Compound 51 in combination with venetoclax plus azacitidine compared to doublet venetoclax plus azacitidine",MOLM-13 tumor-bearing mice,statistically significant increased lifespan
same,% ILS (increased life span),"NSG mice with established MOLM-13 tumors, 4 weeks treatment, azacitidine 2 mg/kg ip QD × 7, venetoclax 100 mg/kg po QD × 28, Compound 51 2 mg/kg po QD × 28 (Table 6)",5%
